Data on ten compounds can be found in paper PMC6269736, “Antimalarial Activity of 4-Metoxychalcones: Docking Studies as Falcipain/Plasmepsin Inhibitors, ADMET and Lipophilic Efficiency Analysis to Identify a Putative Oral Lead Candidate” (Molecules, 2013).

Data set [1] in a line: in vitro. The format is cell-based. Particulars: human. The procedure:
The cytotoxicity of the compounds was assessed with the HeLa human cell line (cervix adenocarcinoma ATCC# CCl-2) using the MTT (3-(4,5-dimethylthiazol-2-yl)-2,5-diphenyltetrazolium bromide) (Sigma, St. Louis, MO, USA) colorimetric method. Briefly, the cells were plated in 96-well plates (1 × 10^5 cells/well) and incubated for 24 h at 37 °C in a humidified atmosphere with 5% CO2. After 24 h, the wells were washed with culture medium (RPMI + 10% inactivated fetal calf serum + 2 mM L-glutamine) and incubated with the compounds at various concentrations (0.05 to 500 µM). After 48 h incubation, the plates were treated with MTT. The colorimetric reading was performed in a microplate reader Spectramax M5e (Molecular Devices, Sunnyvale, CA, USA) at 550 nm. Cytotoxicity was scored as the percentage reduction in absorbance versus untreated control cultures. All experiments were performed in triplicate. […] The IC50 and LC50 values were calculated using OriginPro8.0 (OriginLab Corporation, Northampton, MA, USA) software. A selectivity index (SI), corresponding to the ratio between the cytotoxic and antiparasitic activities of each compound, was calculated as follows: SI = LC50 HeLa/IC50 Plasmodium falciparum

Data set [2] deals with P. falciparum clone W2 (chloroquine-resistant). Kind of data set: In vitro antiplasmodial activity, Giemsa-stained smear parasitaemia after 48 h. The format is cell-based, Plasmodium falciparum. The settings on record: for IC50: Plasmodium falciparum; for SI (selectivity index): SI = LC50 HeLa/IC50 Plasmodium falciparum. The procedure: The human red blood cells and plasma were ceded by the Fundação Hemominas-Hemonúcleo Divinópolis. The synchronization of the parasites was achieved by sorbitol treatment and parasitaemia was determined microscopically in Giemsa-stained smears.
Briefly, ring-stage parasites in sorbitol-synchronized blood cultures were added to 96-well culture plates with 2% parasitaemia and 2% haematocrit and then incubated with the test compounds. The compounds were diluted in complete media, from 10 mg/mL stock solutions in DMSO, at various concentrations (0.1–30 µM). After 48 h incubation, Giemsa-stained blood smears were taken for microscopic evaluation of parasitaemia. All experiments were performed in triplicate.

Where [3] appears, read: P. falciparum W2, 48 h incubation, triplicate, mean ± spread, read-out: IC50, in vitro antiplasmodial activity.
Setting [4] is: P. falciparum W2, from IC50, read-out: pIC50 (converted).

Where two headings read alike, the source gives them in different places.

Compound `COc1ccc(/C=C/C(=O)c2ccccc2)cc1S(=O)(=O)N1CCCC1` [Compound 1i] displayed a CC50 at 48 h in data set [1] of 9.18 ± 1.51 µM. Besides, the IC50 in data set [2] (setting [3]) is 2.07 ± 0.22 µM; in data set [2] (setting [4]) it was 2.07 µM. For the same compound, the “SI (selectivity index)” value in data set [2] was found to be 4.4.

As to `CCN(CC)S(=O)(=O)c1cc(/C=C/C(=O)c2ccccc2)ccc1OC` [Compound 1g], in data set [1], the CC50 at 48 h came out at 20.7 ± 1.6 µM. For the same compound, the IC50 was 11 ± 0.57 µM in data set [2] (setting [3]) and 11 µM in data set [2] (setting [4]). Besides, the “SI (selectivity index)” value in data set [2] is reported as 1.9.

In data set [1], `COc1ccc(NS(=O)(=O)c2cc(/C=C/C(=O)c3ccccc3)ccc2OC)cc1` [Compound 1d] yielded a CC50 at 48 h of 11.1 ± 1.96 µM. Also, the values for the IC50 in data set [2] (setting [3]) and in data set [2] (setting [4]) were 3.64 ± 0.4 µM and 3.64 µM, respectively. For the same compound, in data set [2], the “SI (selectivity index)” value is on record as 3.0.

In data set [1], `COc1ccc(/C=C/C(=O)c2ccccc2)cc1S(=O)(=O)N1CCOCC1` [Compound 1a] registered a CC50 at 48 h of 18.6 ± 1.26 µM. For the same compound, the figures for the IC50 in data set [2] (setting [3]) and in data set [2] (setting [4]) were 2.06 ± 0.05 µM and 2.07 µM, respectively. Also, the “SI (selectivity index)” value in data set [2] came out at 9.0.

`COc1ccc(/C=C/C(=O)c2ccccc2)cc1S(=O)(=O)Nc1ccc(Cl)cc1` [Compound 1e]: in data set [1], the CC50 at 48 h turned out to be 10.5 ± 2.27 µM. The IC50 is 2.83 ± 0.21 µM in data set [2] (setting [3]) and 2.82 µM in data set [2] (setting [4]). Besides, in data set [2], the “SI (selectivity index)” value amounted to 3.7.

Compound `COc1ccc(/C=C/C(=O)c2ccccc2)cc1S(=O)(=O)Nc1ccccc1` [Compound 1c] had a CC50 at 48 h in data set [1] of 11.5 ± 0.23 µM. Besides, the values for the IC50 in data set [2] (setting [3]) and in data set [2] (setting [4]) were 2.03 ± 0.28 µM and 2.03 µM, respectively. Moreover, in data set [2], the “SI (selectivity index)” value turned out to be 5.7.

`COc1ccc(/C=C/C(=O)c2ccccc2)cc1S(=O)(=O)N(C)C` [Compound 1b]: in data set [1], the CC50 at 48 h came out at 20.7 ± 1.62 µM. Moreover, the values for the IC50 in data set [2] (setting [3]) and in data set [2] (setting [4]) were 5.79 ± 0.12 µM and 5.79 µM, respectively. The “SI (selectivity index)” value in data set [2] was found to be 3.6.

Take `CCN(CC)CCCC(C)Nc1ccnc2cc(Cl)ccc12` (centres unmarked) [CQ, chloroquine, reference compound]: the IC50 in data set [2] (W2, 48 h, read-out: IC50, in vitro antiplasmodial activity) was 0.45 ± 0.04 µM; in data set [2] (W2, read-out: pIC50 (converted)), 0.454 µM.

In turn, `COc1ccc(/C=C/C(=O)c2ccccc2)cc1S(=O)(=O)Nc1ccc(Cl)c(Cl)c1` [Compound 1f] returned a cytotoxic concentration (CC50) at 48 h in data set [1] of 19 ± 0.43 µM. For the same compound, the IC50 in data set [2] (setting [3]) was 4.33 ± 0.06 µM; in data set [2] (setting [4]), 4.33 µM. The “SI (selectivity index)” value in data set [2] is on record as 4.4.

In data set [1], `COc1ccc(/C=C/C(=O)c2ccccc2)cc1S(=O)(=O)NCc1ccccc1` [Compound 1h] yielded a CC50 at 48 h of 9.42 ± 2.09 µM. In addition, the IC50 in data set [2] (setting [3]) was 1.96 ± 0.02 µM; in data set [2] (setting [4]) it was 1.96 µM. Also, the “SI (selectivity index)” value in data set [2] was 4.8.
